The test system of one assay is HCC1954. In words: Growth inhibition of human HCC1954 cells after 4 to 6 days by Presto blue assay. In kind it is functional.
A further assay has as its system PC-3. In words: Growth inhibition of human PC3 cells after 4 to 6 days by Presto blue assay. In kind it is functional.
The species entered for the next assay is Bos taurus. Nature of the assay: Inhibition of bovine brain tubulin polymerization at 10 uM after 60 mins by spectrophotometric method.

Calls of active or inactive are those of the source. The rule behind the calls is not given here. Non-standard residues stand in square brackets, D forms with d. Residues, ends and D or L forms follow the SMILES beside them. *: point of attachment. Dolaproine = CO[C@@H]([C@@H]1CCCN1)[C@@H](C)C(=O)O; Abu(3S-N3) = C[C@H](N=[N+]=[N-])[C@H](N)C(=O)O; Dil = CC[C@H](C)[C@H](NC)[C@@H](CC(=O)O)OC; Abu(3S-NH2) = C[C@H](N)[C@H](N)C(=O)O; Dap(N3) = [N-]=[N+]=NC[C@H](N)C(=O)O; NMe2Val = CC(C)[C@@H](C(=O)*)N(C)C; Aha = [N-]=[N+]=NCC[C@H](N)C(=O)O; Pra = C#CC[C@H](N)C(=O)O; Dab = NCC[C@H](N)C(=O)O; Dap = NC[C@H](N)C(=O)O; NHtBu = CC(C)(C)N*; OtBu = CC(C)(C)O*

One may read the GI50 as the concentration giving 50% growth inhibition. Consider `CC[C@H](C)[C@@H]([C@@H](CC(=O)N1CCC[C@H]1[C@H](OC)[C@@H](C)C(=O)NCCc1ccccn1)OC)N(C)C(=O)[C@@H](NC(=O)[C@H](C(C)C)N(C)C)[C@@H](C)O`, for which, in the assay with HCC1954, it took 21 nM to inhibit growth by half (GI50).
Regarding `CC[C@H](C)[C@@H]([C@@H](CC(=O)N1CCC[C@H]1[C@H](OC)[C@@H](C)C(=O)N[C@H](C)[C@@H](O)c1ccccc1)OC)N(C)C(=O)[C@@H](NC(=O)[C@H](C(C)C)N(C)C)[C@H](C)N=[N+]=[N-]`, the 50% growth inhibitory concentration (GI50) in the assay on HCC1954 worked out at 34 nM; in the assay with PC-3 it was 50 nM.
For `CC[C@H](C)[C@@H]([C@@H](CC(=O)N1CCC[C@H]1[C@H](OC)[C@@H](C)C(=O)N[C@@H](Cc1ccccc1)c1nnn[nH]1)OC)N(C)C(=O)[C@@H](NC(=O)[C@H](C(C)C)N(C)C)[C@H](C)N=[N+]=[N-]`, the 50% growth inhibitory concentration (GI50) was found to be 27 nM in the assay with HCC1954 and 41 nM in the assay on PC-3. In addition, the inhibition entry in the assay filed under Bos taurus was “Active”.
With `CC[C@H](C)[C@@H]([C@@H](CC(=O)N1CCC[C@H]1[C@H](OC)[C@@H](C)C(=O)NCCc1ccccc1Cl)OC)N(C)C(=O)[C@@H](NC(=O)[C@H](C(C)C)N(C)C)[C@H](C)N=[N+]=[N-]`, the concentration for 50% growth inhibition (GI50) in the assay on HCC1954 is 13 nM; with PC-3, 34 nM.
For `CC[C@H](C)[C@@H]([C@@H](CC(=O)N1CCC[C@H]1[C@H](OC)[C@@H](C)C(=O)NCCc1ccccc1)OC)N(C)C(=O)[C@@H](NC(=O)[C@H](C(C)C)N(C)C)[C@H](C)N=[N+]=[N-]`, the GI50 came out at 3.1 nM in the assay on HCC1954 and 4.7 nM in the assay with PC-3.
For the molecule `CC[C@H](C)[C@@H]([C@@H](CC(=O)N1CCC[C@H]1[C@H](OC)[C@@H](C)C(=O)NCCc1ccccn1)OC)N(C)C(=O)[C@@H](NC(=O)[C@H](C(C)C)N(C)C)[C@H](C)N=[N+]=[N-]`, the figures for the concentration for 50% growth inhibition (GI50) in the assay with HCC1954 and in the assay on PC-3 were 3.7 nM and 5.1 nM, respectively.
As to `CC[C@H](C)[C@@H]([C@@H](CC(=O)N1CCC[C@H]1[C@H](OC)[C@@H](C)C(=O)NCCc1ccc(Cl)cc1)OC)N(C)C(=O)[C@@H](NC(=O)[C@H](C(C)C)N(C)C)[C@H](C)N=[N+]=[N-]`, the 50% growth inhibitory concentration (GI50) worked out at 33 nM in the assay on HCC1954 and 40 nM with PC-3.
For `CC[C@H](C)[C@@H]([C@@H](CC(=O)N1CCC[C@H]1[C@H](OC)[C@@H](C)C(=O)N[C@@H](Cc1ccccc1)c1nccs1)OC)N(C)C(=O)[C@@H](NC(=O)[C@H](C(C)C)N(C)C)[C@H](C)N=[N+]=[N-]`, the GI50 in the assay with HCC1954 stood at 18 nM; in the assay on PC-3, 33 nM. Further, the inhibition result in the assay filed under Bos taurus is “Active”.
Regarding `CC[C@H](C)[C@@H]([C@@H](CC(=O)N1CCC[C@H]1[C@H](OC)[C@@H](C)C(=O)NCCc1ccccn1)OC)N(C)C(=O)[C@H](CO)NC(=O)[C@H](C(C)C)N(C)C`, the GI50 in the assay on HCC1954 and with PC-3 was above 1000 nM throughout.
As to `CC[C@H](C)[C@@H]([C@@H](CC(=O)N1CCC[C@H]1[C@H](OC)[C@@H](C)C(=O)N[C@@H](Cc1ccccc1)C(=O)OC)OC)N(C)C(=O)[C@H](CS)NC(=O)[C@H](C(C)C)N(C)C` (NMe2Val-C[Dil][Dolaproine]F-OMe), the GI50 in the assay on HCC1954 amounted to 3.2 nM; with PC-3, 3.8 nM.
The corresponding values for `CC[C@H](C)[C@@H]([C@@H](CC(=O)N1CCC[C@H]1[C@H](OC)[C@@H](C)C(=O)N[C@@H](Cc1ccccc1)C(=O)OC)OC)N(C)C(=O)[C@H](CC(=O)O)NC(=O)[C@H](C(C)C)N(C)C` (NMe2Val-D[Dil][Dolaproine]F-OMe) are above 1000 nM and 610 nM.
Take `CC[C@H](C)[C@@H]([C@@H](CC(=O)N1CCC[C@H]1[C@H](OC)[C@@H](C)C(=O)N[C@@H](Cc1ccccc1)C(=O)OC)OC)N(C)C(=O)[C@H](CCCCN)NC(=O)[C@H](C(C)C)N(C)C` (NMe2Val-K[Dil][Dolaproine]F-OMe): the 50% growth inhibitory concentration (GI50) with HCC1954 turned out to be 340 nM.
For `CC[C@H](C)[C@@H]([C@@H](CC(=O)N1CCC[C@H]1[C@H](OC)[C@@H](C)C(=O)N[C@@H](Cc1ccccc1)C(=O)O)OC)N(C)C(=O)[C@H](CO)NC(=O)[C@H](C(C)C)N(C)C` (NMe2Val-S[Dil][Dolaproine]F-OH), the figures for the 50% growth inhibitory concentration (GI50) with HCC1954 and in the assay with PC-3 were 4.4 nM and 19 nM, respectively.
`CC[C@H](C)[C@@H]([C@@H](CC(=O)N1CCC[C@H]1[C@H](OC)[C@@H](C)C(=O)N[C@@H](Cc1ccccc1)C(=O)OC)OC)N(C)C(=O)[C@H](CO)NC(=O)[C@H](C(C)C)N(C)C` (NMe2Val-S[Dil][Dolaproine]F-OMe): the values for the GI50 in the assay on HCC1954 and in the assay with PC-3 were 0.34 nM and 1.2 nM, respectively.
The corresponding values for `CC[C@H](C)[C@@H]([C@@H](CC(=O)N1CCC[C@H]1[C@H](OC)[C@@H](C)C(=O)N[C@@H](Cc1ccccc1)C(=O)O)OC)N(C)C(=O)[C@@H](NC(=O)[C@H](C(C)C)N(C)C)[C@@H](C)O` (NMe2Val-T[Dil][Dolaproine]F-OH) are 3.5 nM and 5 nM.
Consider `CC[C@H](C)[C@@H]([C@@H](CC(=O)N1CCC[C@H]1[C@H](OC)[C@@H](C)C(=O)N[C@@H](Cc1ccccc1)C(=O)OC)OC)N(C)C(=O)[C@@H](NC(=O)[C@H](C(C)C)N(C)C)[C@@H](C)O` (NMe2Val-T[Dil][Dolaproine]F-OMe), for which the results for the 50% growth inhibitory concentration (GI50) in the assay on HCC1954 and with PC-3 were 0.16 nM and 0.38 nM, respectively.
The corresponding values for `CC[C@H](C)[C@@H]([C@@H](CC(=O)N1CCC[C@H]1[C@H](OC)[C@@H](C)C(=O)N[C@@H](Cc1ccccc1)C(N)=O)OC)N(C)C(=O)[C@@H](NC(=O)[C@H](C(C)C)N(C)C)[C@H](C)N=[N+]=[N-]` (NMe2Val-[Abu(3S-N3)][Dil][Dolaproine]F-NH2) are 0.4 nM and 1.7 nM.
For `CC[C@H](C)[C@@H]([C@@H](CC(=O)N1CCC[C@H]1[C@H](OC)[C@@H](C)C(=O)N[C@@H](Cc1ccccc1)C(=O)NC(C)(C)C)OC)N(C)C(=O)[C@@H](NC(=O)[C@H](C(C)C)N(C)C)[C@H](C)N=[N+]=[N-]` (NMe2Val-[Abu(3S-N3)][Dil][Dolaproine]F-NHtBu), in that order: 0.4 nM and 1.2 nM.
The corresponding values for `CC[C@H](C)[C@@H]([C@@H](CC(=O)N1CCC[C@H]1[C@H](OC)[C@@H](C)C(=O)N[C@@H](Cc1ccccc1)C(=O)O)OC)N(C)C(=O)[C@@H](NC(=O)[C@H](C(C)C)N(C)C)[C@H](C)N=[N+]=[N-]` (NMe2Val-[Abu(3S-N3)][Dil][Dolaproine]F-OH) are above 1000 nM and above 1000 nM.
For `CC[C@H](C)[C@@H]([C@@H](CC(=O)N1CCC[C@H]1[C@H](OC)[C@@H](C)C(=O)N[C@@H](Cc1ccccc1)C(=O)OC)OC)N(C)C(=O)[C@@H](NC(=O)[C@H](C(C)C)N(C)C)[C@H](C)N=[N+]=[N-]` (NMe2Val-[Abu(3S-N3)][Dil][Dolaproine]F-OMe), the concentration for 50% growth inhibition (GI50) with HCC1954 turned out to be 0.041 nM; with PC-3 it was 0.093 nM.
On to `CC[C@H](C)[C@@H]([C@@H](CC(=O)N1CCC[C@H]1[C@H](OC)[C@@H](C)C(=O)N[C@@H](Cc1ccccc1)C(=O)OC(C)(C)C)OC)N(C)C(=O)[C@@H](NC(=O)[C@H](C(C)C)N(C)C)[C@H](C)N=[N+]=[N-]` (NMe2Val-[Abu(3S-N3)][Dil][Dolaproine]F-OtBu), for which the GI50 in the assay on HCC1954 worked out at 0.089 nM; with PC-3, 0.045 nM.
For `CC[C@H](C)[C@@H]([C@@H](CC(=O)N1CCC[C@H]1[C@H](OC)[C@@H](C)C(=O)N[C@@H](Cc1ccccc1)C(=O)O)OC)N(C)C(=O)[C@@H](NC(=O)[C@H](C(C)C)N(C)C)[C@H](C)N` (NMe2Val-[Abu(3S-NH2)][Dil][Dolaproine]F-OH), in that order: 2.5 nM and 11 nM.
The corresponding values for `CC[C@H](C)[C@@H]([C@@H](CC(=O)N1CCC[C@H]1[C@H](OC)[C@@H](C)C(=O)N[C@@H](Cc1ccccc1)C(=O)OC)OC)N(C)C(=O)[C@@H](NC(=O)[C@H](C(C)C)N(C)C)[C@H](C)N` (NMe2Val-[Abu(3S-NH2)][Dil][Dolaproine]F-OMe) are 0.076 nM and 0.54 nM.
For `CC[C@H](C)[C@@H]([C@@H](CC(=O)N1CCC[C@H]1[C@H](OC)[C@@H](C)C(=O)N[C@@H](Cc1ccccc1)C(=O)OC)OC)N(C)C(=O)[C@H](CCN=[N+]=[N-])NC(=O)[C@H](C(C)C)N(C)C` (NMe2Val-[Aha][Dil][Dolaproine]F-OMe), in that order: 0.43 nM and 1.1 nM.
With `CC[C@H](C)[C@@H]([C@@H](CC(=O)N1CCC[C@H]1[C@H](OC)[C@@H](C)C(=O)N[C@@H](Cc1ccccc1)C(=O)OC)OC)N(C)C(=O)[C@H](CCN)NC(=O)[C@H](C(C)C)N(C)C` (NMe2Val-[Dab][Dil][Dolaproine]F-OMe), the 50% growth inhibitory concentration (GI50) with HCC1954 and with PC-3 was above 1000 nM in each case.
With `CC[C@H](C)[C@@H]([C@@H](CC(=O)N1CCC[C@H]1[C@H](OC)[C@@H](C)C(=O)N[C@@H](Cc1ccccc1)C(=O)OC)OC)N(C)C(=O)[C@H](CN=[N+]=[N-])NC(=O)[C@H](C(C)C)N(C)C` (NMe2Val-[Dap(N3)][Dil][Dolaproine]F-OMe), the GI50 in the assay on HCC1954 was determined as 0.036 nM; in the assay on PC-3 it was 0.11 nM.
The corresponding values for `CC[C@H](C)[C@@H]([C@@H](CC(=O)N1CCC[C@H]1[C@H](OC)[C@@H](C)C(=O)N[C@@H](Cc1ccccc1)C(=O)OC)OC)N(C)C(=O)[C@H](CN)NC(=O)[C@H](C(C)C)N(C)C` (NMe2Val-[Dap][Dil][Dolaproine]F-OMe) are 3.5 nM and 20 nM.
The corresponding values for `C#CC[C@H](NC(=O)[C@H](C(C)C)N(C)C)C(=O)N(C)[C@@H]([C@@H](C)CC)[C@@H](CC(=O)N1CCC[C@H]1[C@H](OC)[C@@H](C)C(=O)N[C@@H](Cc1ccccc1)C(=O)OC)OC` (NMe2Val-[Pra][Dil][Dolaproine]F-OMe) are 0.16 nM and 0.36 nM.
